Columns and labels:
[1] = target: T1, hα2C receptor (Homo sapiens, UniProt P18825); experiment: Radioligand binding experiment for hα2C receptor ([3H]-raulwolscine, CHO cell membranes); settings: [3H]-raulwolscine 1 nM, membranes of CHO cells transfected with human α2C receptor; read-out: pIC50 hα2C (converted)
T1 construct: expressed in transfected cells; host or cells: CHO cells
T1 sequence (P18825 1-462): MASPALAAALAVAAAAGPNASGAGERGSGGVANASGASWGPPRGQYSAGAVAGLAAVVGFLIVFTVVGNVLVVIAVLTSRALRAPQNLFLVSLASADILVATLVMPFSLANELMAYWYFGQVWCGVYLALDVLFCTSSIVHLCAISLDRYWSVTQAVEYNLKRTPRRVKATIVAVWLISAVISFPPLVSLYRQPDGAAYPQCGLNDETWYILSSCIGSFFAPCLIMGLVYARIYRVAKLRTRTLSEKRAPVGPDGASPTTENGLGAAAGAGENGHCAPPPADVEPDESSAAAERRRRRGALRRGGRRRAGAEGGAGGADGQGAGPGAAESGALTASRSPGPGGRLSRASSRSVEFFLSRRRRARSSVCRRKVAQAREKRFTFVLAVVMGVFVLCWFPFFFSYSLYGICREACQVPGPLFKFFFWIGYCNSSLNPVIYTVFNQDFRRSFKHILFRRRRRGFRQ
Procedure: (§1) The interaction of the compounds according to Formula (I) with hα2-receptors and h5-HT-transporters was assessed in in vitro radioligand binding experiments. In general, a low concentration of a radioligand with a high binding affinity for a particular receptor or transporter is incubated with a sample of a tissue preparation enriched in a particular receptor or transporter or with a preparation of cells expressing cloned human receptors in a buffered medium. During the incubation, the radioligand binds to the receptor or transporter. When equilibrium of binding is reached, the receptor bound radioactivity is separated from the non-bound radioactivity, and the receptor- or transporter-bound activity is counted. The interaction of the test compounds with the receptor is assessed in competition binding experiments. Various concentrations of the test compound are added to the incubation mixture containing the receptor- or transporter preparation and the radioligand. The test compound in proportion to its binding affinity and its concentration inhibits binding of the radioligand. The radioligand used for hα2A, hα2B and hα2C receptor binding was [^3H]-raulwolscine and for the h5-HT transporter was [^3H]paroxetine.
(§2) CHO cells, stabile transfected with human adrenergic-α2A-, —α2B or α2C receptor cDNA, were cultured in Dulbecco's Modified Eagle's Medium (DMEM)/Nutrient mixture Ham's F12 (ratio 1:1)(Gibco, Gent-Belgium) supplemented with 10% heat inactivated fetal calf serum (Life Technologies, Merelbeke-Belgium) and antibiotics (100 IU/ml penicillin G, 100 μg/ml streptomycin sulphate, 110 μg/ml pyruvic acid and 100 μg/ml L-glutamine). One day before collection, cells were induced with 5 mM sodiumbutyrate. Upon 80-90% of confluence, cells were scraped in phosphate buffered saline without Ca^2+ and Mg^2+ and collected by centrifugation at 1500×g for 10 min. The cells were homogenised in Tris-HCl 50 mM using an Ultraturrax homogenizer and centrifuged for 10 min at 23,500×g. The pellet was washed once by resuspension and rehomogenization and the final pellet was resuspended in Tris-HCl, divided in 1 ml aliquots and stored at −70° C.
(§3) Membranes were thawed and re-homogenized in incubation buffer (glycylglycine 25 mM, pH 8.0). In a total volume of 500 μl, 2-10 μg protein was incubated with [^3H]raulwolscine (NET-722) (New England Nuclear, USA) (1 nM final concentration) with or without competitor for 60 min at 25° C. followed by rapid filtration over GF/B filter using a Filtermate196 harvester (Packard, Meriden, Conn.). Filters were rinsed extensively with ice-cold rinsing buffer (Tris-HCl 50 mM pH 7.4). Filter-bound radioactivity was determined by scintillation counting in a Topcount (Packard, Meriden, Conn.) and results were expressed as counts per minute (cpm). Non-specific binding was determined in the presence of 1 μM oxymetazoline for hα2A- and hα2B receptors and 1 μM spiroxatrine for hα2C receptors.
(§4) Data from assays in the presence of compound were calculated as a percentage of total binding measured in the absence of test compound. Inhibition curves, plotting percent of total binding versus the log value of the concentration of the test compound, were automatically generated, and sigmoidal inhibition curves were fitted using non-linear regression. The pIC50 values of test compounds were derived from individual curves.

[2] = target: T2, hα2B receptor (Homo sapiens, UniProt P18089); experiment: Radioligand binding experiment for hα2B receptor ([3H]-raulwolscine, CHO cell membranes); settings: [3H]-raulwolscine 1 nM, membranes of CHO cells transfected with human α2B receptor; read-out: pIC50 hα2B (converted)
T2 construct: expressed in transfected cells; host or cells: CHO cells
T2 sequence (P18089 1-450): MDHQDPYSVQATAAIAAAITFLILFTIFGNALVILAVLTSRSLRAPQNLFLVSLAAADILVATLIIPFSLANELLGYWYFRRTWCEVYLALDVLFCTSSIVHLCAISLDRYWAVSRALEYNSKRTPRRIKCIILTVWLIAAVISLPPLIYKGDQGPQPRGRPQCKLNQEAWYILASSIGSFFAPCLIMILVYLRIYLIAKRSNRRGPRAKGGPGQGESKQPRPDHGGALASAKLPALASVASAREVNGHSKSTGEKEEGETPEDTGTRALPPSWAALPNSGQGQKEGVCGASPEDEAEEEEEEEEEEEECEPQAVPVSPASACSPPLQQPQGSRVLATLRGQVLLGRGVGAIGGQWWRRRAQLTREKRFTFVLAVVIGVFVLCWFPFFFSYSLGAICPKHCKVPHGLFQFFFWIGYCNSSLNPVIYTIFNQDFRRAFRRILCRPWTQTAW
Procedure: as §1, §2, §3, §4

[3] = target: T3, hα2A receptor (Homo sapiens, UniProt P08913); experiment: Radioligand binding experiment for hα2A receptor ([3H]-raulwolscine, CHO cell membranes); settings: [3H]-raulwolscine 1 nM, membranes of CHO cells transfected with human α2A receptor; read-out: pIC50 hα2A (converted)
T3 construct: expressed in transfected cells; host or cells: CHO cells
T3 sequence (P08913 1-465): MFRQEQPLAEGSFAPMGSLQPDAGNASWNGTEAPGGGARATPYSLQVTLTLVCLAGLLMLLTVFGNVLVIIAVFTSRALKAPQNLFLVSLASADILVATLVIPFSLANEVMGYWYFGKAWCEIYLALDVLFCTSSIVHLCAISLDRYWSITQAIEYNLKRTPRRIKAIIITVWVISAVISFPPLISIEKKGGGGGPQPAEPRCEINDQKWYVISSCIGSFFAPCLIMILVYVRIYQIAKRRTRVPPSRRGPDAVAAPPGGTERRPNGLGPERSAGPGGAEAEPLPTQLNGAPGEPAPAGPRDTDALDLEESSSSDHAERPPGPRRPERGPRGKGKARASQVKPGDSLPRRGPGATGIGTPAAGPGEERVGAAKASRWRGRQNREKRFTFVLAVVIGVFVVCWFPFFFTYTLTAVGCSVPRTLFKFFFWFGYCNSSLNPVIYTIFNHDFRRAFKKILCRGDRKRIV
Procedure: as §1, §2, §3, §4

[4] = target: T4, h5-HT transporter (Homo sapiens, UniProt P31645); experiment: Radioligand binding experiment for 5-HT transporter ([3H]paroxetine, human platelet membranes); settings: [3H]paroxetine 0.5 nM, read-out: pIC50 h5HTT (converted)
T4 construct: Human platelet membranes (Oceanix Biosciences Corporation, Hanover, Md., USA) were thawed; tissue Oceanix Biosciences Corporation; host or cells: human platelet membranes
T4 sequence (P31645 whole entry): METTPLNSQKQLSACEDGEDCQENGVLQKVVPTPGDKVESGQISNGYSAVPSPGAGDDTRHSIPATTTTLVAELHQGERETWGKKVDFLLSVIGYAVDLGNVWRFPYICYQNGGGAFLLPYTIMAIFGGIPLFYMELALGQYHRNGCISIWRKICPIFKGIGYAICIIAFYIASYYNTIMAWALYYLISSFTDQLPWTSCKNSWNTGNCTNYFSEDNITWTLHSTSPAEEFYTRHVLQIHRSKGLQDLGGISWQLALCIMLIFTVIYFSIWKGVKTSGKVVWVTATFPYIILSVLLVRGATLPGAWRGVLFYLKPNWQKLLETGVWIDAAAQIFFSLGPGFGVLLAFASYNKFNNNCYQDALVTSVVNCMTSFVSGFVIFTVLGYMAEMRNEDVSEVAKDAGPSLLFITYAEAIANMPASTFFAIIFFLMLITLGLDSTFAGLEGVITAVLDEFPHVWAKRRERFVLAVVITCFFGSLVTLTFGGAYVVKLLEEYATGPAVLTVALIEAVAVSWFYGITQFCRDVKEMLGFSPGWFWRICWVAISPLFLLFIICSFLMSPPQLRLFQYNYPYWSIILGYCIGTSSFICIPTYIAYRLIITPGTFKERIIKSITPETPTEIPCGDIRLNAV
Procedure: as §1
Human platelet membranes (Oceanix Biosciences Corporation, Hanover, Md., USA) were thawed, diluted in buffer (Tris-HCl 50 mM, 120 mM NaCl and 5 mM KCl) and quickly (max 3 s) homogenised with an Ultraturrax homogenizer. In a total volume of 250 μL, 50-100 μg protein was incubated with [^3H]paroxetine (NET-869) (New England Nuclear, USA) (0.5 nM final concentration) with or without competitor for 60 min at 25° C. Incubation was stopped by rapid filtration of the incubation mixture over GF/B filters, pre-wetted with 0.1% polyethyleneamine, using a Filtermate 196 harvester (Packard, Meriden, Conn.). Filters were rinsed extensively with ice-cold buffer and radioactivity on the filters was counted in a Topcount liquid scintillation counter (Packard, Meriden, Conn.). Data were expressed as cpm. Imipramine (at 1 μM final concentration) was used to determine the non-specific binding.
as §4

IC50 [1] [nM]	IC50 [2] [nM]	IC50 [3] [nM]	IC50 [4] [nM]	Structure (SMILES)
15.8	10	3.98	39.8	Cc1ccc2c(c1)C1=NOC(CN3CCN(CC=Cc4ccccc4)CC3)C1CO2 (stereo not shown) [Compound 1, 8-Methyl-3-[4-(3-phenyl-allyl)-piperazin-1-ylmethyl]-3a,4-dihydro-3H-chromeno[4,3-c]isoxazole]
1.58		2	20	COc1cc2c(cc1C)OCC1C2=NOC1CN1CCN(C/C(C)=C/c2ccccc2)CC1 (stereo not shown) [Compound 2, 8-Methoxy-7-methyl-3-[4-(2-methyl-3-phenyl-allyl)-piperazin-1-ylmethyl]-3a,4-dihydro-3H-chromeno[4,3-c]isoxazole]
1.58		3.98	100	COc1cc2c(cc1CO)OCC1C2=NOC1CN1CCN(C/C(C)=C/c2ccccc2)CC1 (stereo not shown) [Compound 4, {8-Methoxy-3-[4-(2-methyl-3-phenyl-allyl)-piperazin-1-ylmethyl]-3a,4-dihydro-3H-chromeno[4,3-c]isoxazol-7-yl}-methanol]
0.794	2.51	3.16	158	COCc1ccc2c(c1)OCC1C2=NOC1CN1CCN(CC(C)=Cc2ccccc2)CC1 (stereo not shown) [Compound 5, 7-Methoxymethyl-3-[4-(2-methyl-3-phenyl-allyl)-piperazin-1-ylmethyl]-3a,4-dihydro-3H-chromeno[4,3-c]isoxazole]
0.794	2.51	7.94	31.6	COCCOCOCc1cc2c(cc1OC)C1=NOC(CN3CCN(C/C(C)=C/c4ccccc4)CC3)C1CO2 (stereo not shown) [Compound 6, 8-Methoxy-7-(2-methoxy-ethoxymethoxymethyl)-3-[4-(2-methyl-3-phenyl-allyl) -piperazin-1-ylmethyl]-3a,4-dihydro-3H-chromeno[4,3-c]isoxazole]
1.26		3.98	12.6	COc1cc2c(cc1COC(C)=O)OCC1C2=NOC1CN1CCN(C/C(C)=C/c2ccccc2)CC1 (stereo not shown) [Compound 7, Acetic acid 8-methoxy-3-[4-(2-methyl-3-phenyl-allyl)-piperazin-1-ylmethyl]-3a,4-dihydro-3H-chromeno[4,3-c]isoxazol-7-ylmethyl ester]
20		25.1	200	COc1cc2c(cc1COc1ccccc1)OCC1C2=NOC1CN1CCN(C/C(C)=C/c2ccccc2)CC1 (stereo not shown) [Compound 8, 8-Methoxy-3-[4-(2-methyl-3-phenyl-allyl)-piperazin-1-ylmethyl]-7-phenoxymethyl-3a,4-dihydro-3H-chromeno[4,3-c]isoxazole]
1.58		5.01	5.01	C/C(=C\c1ccccc1)CN1CCN(CC2ON=C3c4ccc(/C=N\O)cc4OCC32)CC1 (stereo not shown) [Compound 11, 3-[4-(2-Methyl-3-phenyl-allyl)-piperazin-1-ylmethyl]-3a,4-dihydro-3H -chromeno[4,3-c]isoxazole-7-carbaldehyde oxime]
3.98		6.31	100	CON=Cc1ccc2c(c1)OCC1C2=NOC1CN1CCN(CC(C)=Cc2ccccc2)CC1 (stereo not shown) [Compound 12, 3-[4-(2-Methyl-3-phenyl-allyl)-piperazin-1-ylmethyl]-3a,4-dihydro-3H -chromeno[4,3-c]isoxazole-7-carbaldehyde O-methyl-oxime]
0.794		5.01		CC(=O)NCc1ccc2c(c1)OCC1C2=NOC1CN1CCN(C/C(C)=C/c2ccccc2)CC1 (stereo not shown) [Compound 15, N-{3-[4-(2-Methyl-3-phenyl-allyl)-piperazin-1-ylmethyl]-3a,4-dihydro-3H -chromeno[4,3-c]isoxazol-7-ylmethyl}-acetamide]
1.58		3.16	126	CCNC(=O)c1cc2c(cc1OC)C1=NOC(CN3CCN(C/C(C)=C/c4ccccc4)CC3)C1CO2 (stereo not shown) [Compound 16, 8-Methoxy-3-[4-(2-methyl-3-phenyl-allyl)-piperazin-1-ylmethyl]-3a,4-dihydro-3H -chromeno[4,3-c]isoxazole-7-carboxylic acid ethylamide]
12.6		15.8	158	COc1cc2c(cc1-c1ccccc1)OCC1C2=NOC1CN1CCN(C/C(C)=C/c2ccccc2)CC1 (stereo not shown) [Compound 17, 8-Methoxy-3-[4-(2-methyl-3-phenyl-allyl)-piperazin-1-ylmethyl]-7-phenyl-3a,4-dihydro-3H-chromeno[4,3-c]isoxazole]
0.794		5.01		C/C(=C\c1ccccc1)CN1CCN(CC2ON=C3c4ccc(C=O)cc4OCC32)CC1 (stereo not shown) [Compound 19]

From US7465741B2, “C-substituted tricyclic isoxazoline derivatives and their use as anti-depressants” (Janssen Pharmaceutica N.V., priority 2002, dated 2008)
